These results are taken from patent publication US20160075682A1, “INHIBITORS OF NICOTINAMIDE PHOSPHORIBOSYLTRANSFERASE, COMPOSITIONS, PRODUCTS AND USES THEREOF” (UNIVERSITÀ DEGLI STUDI DEL PIEMONTE ORIENTALE "AMEDEO …, priority 2013, published 2016).

In one assay the target is T1, NAMPT (Homo sapiens, UniProt P43490).
T1 construct: endogenous in cells; host or cells: SH-SY5Y and HeLa
Nature of the assay: Direct inhibition of NAMPT enzymatic activity (Cyclex NAMPT colorimetric Assay Kit). Format: biochemical. The note with it: as assessed with a cycling assay. The method, then:
Determination of the direct activity of compounds on NAMPT was performed using a commercial kit, Cyclex NAMPT colorimetric Assay Kit.

Another assay concerns SH-SY5Y, HeLa. The assay is described as follows: MTT cell proliferation assay and trypan blue count (cell viability). The note with it: cells treated for 48 and 72 hours; read-out: IC50 values (inhibition of cellular proliferation, MTT assay and trypan blue assay). The assay is classed as cell-based. The method, then:
Cell based assays were used to evaluate the possible cytotoxic effects of some compounds. To measure cytotoxic effects two different methods were used, a MTT cell proliferation assay and trypan blue count.
The Trypan blue assay is used to determine the number of viable cells present in a cell suspension. […] Briefly, 8×10^5 cells (SH-SY5Y, HeLa; obtained from ATCC, LGC standards, Sesto San Giovanni) were seeded in 24-well plates and treated for 48 and 72 hours. After the treatments, cells were stained with trypan blue and counted.
To analyze cell viability was used the colorimetric 3-(4,5-dimethylthiazol-2-yl)-2,5-diphenyltetrazolium bromide (MTT) method. The assay is based on the cleavage of the yellow tetrazolium salt MTT to purple formazan crystals by metabolic active cells. Since reduction of MTT can only occur in metabolically active cells, the level of activity is a measure of the viability of cells and conversely the cytotoxic effects of various treatments. Briefly, 8×10^5 cells (SH-SY5Y, code number CRL-2266; and HeLa, code number CCL-2) were seeded in 24-well plates and treated for 48 and 72 hours. Compounds were dissolved in DMSO and were added to the cells to give a final DMSO concentration no greater than 0.5%. Cells were washed once in Locke buffer and 300 μl of MTT (250 μg/ml in Locke buffer) were added before returning the cells to the incubator for 1 h to allow the formation of the purple formazan crystals. After 1 h, 600 μl of isopropanol/0.1 M HCl were added to each well, and the absorbance was read at 570 nm in a plate reader (Victor3V, PerkinElmer Life Sciences). For some compounds a dose response curve and IC50 for the effects on cell viability and proliferation were calculated. Cell lines used were originally purchased from ATCC (LGC standards. Sesto San Giovanni).
To evaluate the ability of each compound to inhibit cellular proliferation, cells were seeded in 24-well plates and treated for 48 and 72 hours. After the treatments the MTT assay and trypan blue assay were performed.
In general terms: Tetrazolium assays rely on reduction of a dye to a coloured formazan, in cell work by metabolically active cells.

Assay [1] concerns Dextran-induced colitis in C57/BJ6 mice. Nature of the assay: Experimental colitis induced by dextran sulfate sodium (DSS). The assay is classed as in vivo. Conditions: i.p., doses of between 20 mg/Kg and 500 mg/Kg. The method, then: Animal work was authorized by the local ethical committee for animal studies (Università del Piemonte Orientale). Colitis was induced in C57/BJ6 mice (Harlan Nossan, Milan, Italy) by addition of DSS (2%) to their daily drinking water for 7 days followed by a 3-day recovery period without DSS. The severity of colitis was assessed using these set of criteria: (1) clinical index (daily changes in body weight; diarrhea and rectal bleeding); (2) macroscopic evidence of colitis (shortening of colon length). On day 10 of the experiment, animals were sacrificed. Treatments were performed with either solvent alone or drugs once a day for the entire duration of the experiments from day 1 to day 7. The colon lengths were measured and colon tissues were harvested for biochemical measurements, histopathological assessment and scoring. (Tang Y, Preuss F, Turek F W, Jakate S, Keshavarzian A. Sleep deprivation worsens inflammation and delays recovery in a mouse model of colitis. Sleep Med. 2009 June; 10(6):597-603).
(§1) As previously described, the colon of DNBS- or dextran treated animals was removed after the induction of colitis. Compounds of formula (I) were administered intraperitoneally (i.p.).

Assay [2] concerns DNBS-induced colitis in BALB/c mice. Nature of the assay: Experimental colitis induced by DNBS. The note with it: i.p. Format: in vivo. The method, then: Animal work was authorized by the local ethical committee for animal studies (Università del Piemonte Orientale). BALB/c mice (Harlan Nossan, Milan, Italy) were anesthetized by enflurane. Dinitrobenzene sulfonic acid (DNBS; 4 mg in 100 μl of 50% ethanol) was injected into the rectum through a catheter inserted 4.5 cm proximally to the anus. Carrier alone (100 μl of 50% ethanol) was administered in control experiments. Thereafter, the animals were kept for 15 minutes in a Trendelenburg position to avoid reflux. Treatment with either solvent alone or drugs was done immediately after induction and thereafter twice a day. […] On Day 4, the animals were weighed and anaesthetized with chloral hydrate, and the abdomen was opened by a midline incision. The colon was removed, freed from surrounding tissues, opened along the antimesenteric border, rinsed, weighed, and processed for histology, biochemical measurements and immunohistochemistry. Colon damage (macroscopic damage score) was evaluated and scored by two independent observers according to the following criteria: 0, no damage; 1, localized hyperemia without ulcers; 2, linear ulcers with no significant inflammation; 3, linear ulcers with inflammation at one site; 4, two or more major sites of inflammation and ulceration extending >1 cm along the length of the colon; and 5-8, one point is added for each centimeter of ulceration beyond an initial 2 cm. Biochemical and histological analysis also included TNFalpha measurements and myeloperoxidase (MPO) measurements by ELISA assay, and VEGF, NAMPT, COX-2 measurements by immunoblotting. (Esposito E, Mazzon E, Paterniti I, Dal Toso R, Pressi G, Caminiti R, Cuzzocrea S. PPAR-alpha Contributes to the Anti-Inflammatory Activity of Verbascoside in a Model of Inflammatory Bowel Disease in Mice. PPAR Res. 2010; 2010:917312).
as §1

The mark [3] stands for this setting: DNBS-treated mice, between 20 mg/Kg and 500 mg/Kg, compared to untreated colitis mice.

T1 sequence (P43490 whole entry): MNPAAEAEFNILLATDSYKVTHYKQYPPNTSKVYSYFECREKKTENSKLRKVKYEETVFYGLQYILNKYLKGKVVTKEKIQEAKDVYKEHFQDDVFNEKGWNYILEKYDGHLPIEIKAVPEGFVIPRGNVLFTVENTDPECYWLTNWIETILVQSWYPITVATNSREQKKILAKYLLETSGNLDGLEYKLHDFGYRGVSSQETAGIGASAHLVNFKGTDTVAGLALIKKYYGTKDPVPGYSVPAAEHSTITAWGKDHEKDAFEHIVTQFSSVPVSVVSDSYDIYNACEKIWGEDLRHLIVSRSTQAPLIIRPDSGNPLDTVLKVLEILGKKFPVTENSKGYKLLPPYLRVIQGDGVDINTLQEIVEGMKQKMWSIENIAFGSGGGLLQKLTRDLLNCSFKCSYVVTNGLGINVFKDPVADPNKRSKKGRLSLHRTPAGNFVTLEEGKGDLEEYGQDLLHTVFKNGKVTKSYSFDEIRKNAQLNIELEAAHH

In the case of `O=C(O)c1ccccc1-c1ccccc1C(=O)NCCCCCCCn1cc(-c2cccnc2)nn1` [2′-((7-(4-(pyridin-3-yl)-1H-1,2,3-triazol-1-yl)heptyl)carbamoyl)-[1,1′-biphenyl]-2-carboxylic acid], at NAMPT, the “inhibition of the enzymatic activity of NAMPT” value was “able to inhibit”. Further, the IC50 with SH-SY5Y, HeLa was below 300 nM. The “protection from Dextran-induced colitis as assessed by the macroscopic damage score” value in assay [1] is recorded as “able to protect”. Also, in assay [2] (setting [3]), the “MPO in the colon” value is listed as “able to reduce”, the “NAMPT in the colon” value is “able to reduce”, the “TNFalpha in the colon” value was “able to reduce” and the “VEGF in the colon” value is given as “able to reduce”. For the same compound, the “protection from DNBS-induced colitis as assessed by the macroscopic damage score” value in assay [2] (doses of between 20 mg/Kg and 500 mg/Kg) was “able to protect”.
